What was measured:
Assay type in all cases: functional, cell-based
Conditions in all cases: Homo sapiens
HT-29 = experiment: Antiproliferative activity against HT29 cell line by MTS assay
NCI-H460 = experiment: Antiproliferative activity against NCI-H460 cell line by MTS assay
DLD-1 = experiment: Antiproliferative activity against DLD1 cell line by MTS assay
A549 = experiment: Antiproliferative activity against A549 cell line by MTS assay
MDA-MB-231 = experiment: Antiproliferative activity against MDA-MB-231 cell line by MTS assay

SMILES | IC50 (HT-29) [µM] | IC50 (NCI-H460) [µM] | IC50 (DLD-1) [µM] | IC50 (A549) [µM] | IC50 (MDA-MB-231) [µM]
COc1cc(-c2ccc[nH]2)[nH]c1/C=C1\C(C)=Nc2ccccc21 | 36.2 | 21.6 | 63.2 | 54.6 | 47.4
COc1cc(-c2ccc[nH]2)[nH]c1/C=C1\C(C)=Nc2ccc(C)cc21 | 12.3 | 10.8 | 16.7 | 14.3 | 23.2
COc1cc(-c2ccc[nH]2)[nH]c1/C=C1/C=C2CCCCC2=N1 | 0.781 | 0.23 | 0.446 | 0.487 | 1.38
COC1=CC(c2ccc[nH]2)=N/C1=C\c1[nH]c(-c2ccc[nH]2)cc1OC | 13.5 | 3.45 | 7.74 | 6.45 | 12.8
COc1cc(-c2ccc[nH]2)[nH]c1/C=C1\C=Nc2ccccc21 | 4.68 | 4.06 | 6.02 | 6.61 | 9.35
CCC1CCCCCCCCC2=N/C(=C\c3[nH]c(-c4ccc[nH]4)cc3OC)C1=C2 (stereo not given) [METACYCLOPRODIGININE] | 1.7 | 0.33 | 1.78 | 1.25 | 5.21
CCCCCC1=C/C(=C/c2[nH]c(-c3ccc[nH]3)cc2OC)N=C1C [PRODIGIOSIN] | 0.173 | 0.032 | 0.079 | 0.077 | 0.213

— ChEMBL document CHEMBL1138112, “Indoloprodigiosins from the C-10 bipyrrolic precursor: new antiproliferative prodigiosin analogs” (Bioorg Med Chem Lett, 2006)
